{"source": "patent EP0337598A2", "about": "“Use of porphyrins and metalloporphyrins in the treatment of diseases caused by Human Immunodeficiency Viruses” (GEORGIA STATE UNIVERSITY FOUNDATION, INC., priority 1988, dated 1989)", "key": {"LAV strain of HIV": {"system": "LAV strain of HIV", "test": "Assay of anti-HIV activity: HIV production in infected MT-4 cells", "assay_type": "cell-based", "conditions": "in the dark, result in words"}, "[1]": {"system": "Herpes simplex virus (HSV) type 1, strain WT-51", "test": "Anti-HSV activity: virus infectivity in culture fluid of infected BS-C-40 monolayers by plaque method", "assay_type": "cell-based", "conditions": "m.o.i. 0.01, 18 hours of incubation, result in words", "experimental": "Herpes simplex virus (HSV) type 1, strain WT-51, and BS-C-40, an African green monkey kidney cell line, were used. HSV stock was prepared in BS-C-40 and the infectivity of the virus was measured on BS-C-40 monolayers by plaque method. Eagle's minimal essential medium (MEM) supplemented with 8% newborn calf serum was used as the culture medium and cells were incubated at 37°C in a humidified CO₂-incubator (5% CO₂, 95% air).\nBS-C-40 monolayers were infected with HSV at the m.o.i. of 0.01 at 37°C for 1 hour and the monolayers were washed with MEM, and fresh culture medium was added. After 18 hours of incubation in the presence or absence of protoporpyrin, the virus infectivity in the culture fluid was measured by plaque method.\nTwo tenths ml aliquots of serially 10-fold diluted virus were inoculated onto confluent monolayer of cells in 35 mm plastic petridishes. After adsorption of the virus at 37°C for 1 hour, the monolayers were overlaid with 2 ml of MEM with 1% methylcellulose and 2% newborn calf serum. On day 3, the monolayers were stained with neutral red and plaque counts were made."}, "[2]": {"conditions": "mouse, cited from earlier work"}, "[3]": {"conditions": "intravenous, rat; cited from earlier work"}, "[4]": {"conditions": "intravenous, rabbit; cited from earlier work"}, "[5]": {"conditions": "intravenous, cat; cited from earlier work"}}, "note": "Where a name gives a salt, the structure may show the parent alone. Read-outs that look alike come from different tables or passages of the source.", "data": [{"smiles": "C=CC1=C(C)c2cc3[nH]c(cc4nc(cc5[nH]c(cc1n2)c(C)c5CCC(=O)O)C(CCC(=O)O)=C4C)c(C)c3C=C", "note": "[Protoporphyrin disodium salt]", "values": [{"measurement": "anti-HIV activity (antivirally active when production of HIV was reduced as compared with the control)", "setting": "LAV strain of HIV", "result": "potent anti-HIV activity"}, {"measurement": "anti-HSV activity", "setting": "[1]", "result": "no anti-HSV activity"}, {"measurement": "LD₅₀", "setting": "[2]; intraperitoneal", "result": "1,028.6 mg/kg"}, {"measurement": "LD₅₀", "setting": "[2]; intravenous", "result": 347.3, "unit": "mg/kg"}, {"measurement": "LD₅₀", "setting": "[2]; oral", "result": "> 25,000.0 mg/kg"}, {"measurement": "LD₅₀", "setting": "[2]; subcutaneous", "result": "1,147.0 mg/kg"}, {"measurement": "LD₅₀", "setting": "[3]", "result": 240.3, "unit": "mg/kg"}, {"measurement": "LD₅₀", "setting": "[4]", "result": 220.0, "unit": "mg/kg"}, {"measurement": "LD₅₀", "setting": "[5]", "result": 215.5, "unit": "mg/kg"}]}]}
